Results: paper PMC12196476, “New Nitrogen-, Oxygen-, and Sulfur-Containing Heterocyclic Compounds as Anti-Colon Cancer Agents: Synthesis, Multitargeted Evaluations, Molecular Docking Simulations and ADMET Predictions” (Pharmaceuticals, 2025)

Legend:
[1] = DPPH radical scavenging assay; details: three independent experiments; read-out: Mean IC50 (mM) for initial DPPH radicals ± SD
Description: The antioxidant activities of the studied compounds were assessed using the 1,1-diphenyl-2-picrylhydrazyl (DPPH) radical scavenging method as detailed by Bersuder et al.. The results were expressed as IC50 (mM)—the concentration of the test compound required to neutralize 50% of DPPH radicals.
The antioxidant efficiencies of target compounds were determined using the 1,1-diphenyl-2-picrylhydrazyl (DPPH) radical scavenging method as detailed by Bersuder et al.. […]
S3.2. Evaluation of Biological Activities.
S3.2.1. In vitro DPPH radical scavenging assay.
The antioxidant efficiencies of compounds—3a−e, 8, 9a−c, 13, 14, 17, 18a−h, 20, 22, 23, and 25—were
determined using the 1,1-diphenyl-2-picrylhydrazyl (DPPH) radical scavenging method as
detailed by Bersuder et al.. Fundamentally, the purple color of the stabilized DPPH radical
fades in the presence of an antioxidant, thus, the change of absorbance can be followed
spectrophotometrically at 519 nm. In the assay, equal volumes (0.5 mL) of DPPH ethanolic solution
and each compound (0-2 mg/mL in DMSO) or butylated hydroxytoluene (BHT) as the reference
were mixed well by shaking. The negative control consisted of the same amount of DMSO and
DPPH solution. After, incubation all mixtures at room temperature in the dark for one hour, the
absorbance of the residual DPPH radicals was measured at 519 nm using the UV‐vis
spectrophotometer. The DPPH radical scavenging activity of each compound (%) was calculated
Scavenging activity = (1 − Acompound/AControl) * 100, where Acompound and Acontrol the absorbance values
of each tested compound (or BHT) and the negative control, respectively. The half maximal
inhibitory concentration (IC50) for each compound in mg/mL was deduced by graphing the dose-
response curve relating the scavenging activity (%) to the compound concentration. Data points
represent the mean ± standard deviation (SD) of three independent determinations.

[2] = biological target: PDK-1 (Homo sapiens, UniProt Q15118); test: In vitro PDK-1 inhibition assay (Kinase-Glo luminescent kinase kit); format: biochemical; details: 100 µg/mL, three replicates; read-out: Mean Inhibition Percent ± SD, PDK-1
Chain of PDK-1 (Q15118 29-436): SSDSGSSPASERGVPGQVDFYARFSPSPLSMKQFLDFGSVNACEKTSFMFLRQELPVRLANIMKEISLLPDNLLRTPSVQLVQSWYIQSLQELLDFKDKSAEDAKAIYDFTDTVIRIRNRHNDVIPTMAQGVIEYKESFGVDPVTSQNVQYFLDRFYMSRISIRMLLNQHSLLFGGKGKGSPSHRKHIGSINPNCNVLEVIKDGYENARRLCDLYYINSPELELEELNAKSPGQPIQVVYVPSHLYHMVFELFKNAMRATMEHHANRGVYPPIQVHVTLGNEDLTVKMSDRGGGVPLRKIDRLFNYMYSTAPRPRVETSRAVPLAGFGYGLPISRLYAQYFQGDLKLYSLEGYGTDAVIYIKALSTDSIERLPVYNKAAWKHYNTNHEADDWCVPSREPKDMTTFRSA
Description: Principally, the PDK-1 inhibitory activities were evaluated using the non-radioactive Kinase-Glo™ Luminescent Kinase Kit (Promega Corporation, Madison, WI, USA) following the instructions of the manufacturer.
S3.2.2. In vitro PDK-1 inhibition assay.
The PDK-1 inhibitory activities of the test compounds were evaluated using the non-radioactive
Kinase-Glo™ Luminescent Kinase kit (Promega Corporation, Madison, WI, USA), following the
manufacturer’s protocol. Briefly, 5 μL of assay buffer—containing 10 × 250 mM Tris-HCl, 50 mM
MgCl2, 5 mM ethyleneglycol-bis(β-aminoethylether)-N,N,N′,N′-tetraacetic acid (EGTA), 10 mM
ethylenedi- aminetetraacetic acid (EDTA), and 10 mM dithiothreitol (DTT)—was added to each
well of a 96-well plate, along with 25 μL of distilled water. Subsequently, 5 μL of each test
compound at various concentrations (50, 100, 200 and 300 μg/mL in 1% DMSO) was added to the
respective wells, except for the two control wells, which received 5 μL of either PBS buffer or 1%
DMSO. Then, 5 μL of pyruvate dehydrogenase E1 (PDH E1) protein (10 μM) and 5 μL of ATP
(10 μM) were added to each well. To initiate phosphorylation, 5 μL of PDK-1 (20 μM) in protein
buffer (1 mM MgCl2, 2000 mM KCl, 40 mM K3PO4) was added to all the wells except the control
wells, which received 5 μL of protein buffer instead. The plate was then mixed thoroughly and
incubated at 37 °C for 30 minutes. After incubation, 50 μL of kinase-Glo® reagent was added to each
well, followed by a 10-minute incubation at room temperature with gentle shaking to stabilize the
luminescent signal. Luminescence was then measured using a microplate reader.
The IC50 value—defined as the concentration of a compound required to reduce luminescence by
50%, compared to untreated control wells—was determined for each compound from the
corresponding dose–response curve generated by plotting PDK-1 inhibition (%) versus compound
concentration. Sodium dichloroacetate (SDA, 1000 μM) was used as a reference PDK-1inhibitor. […]

[3] = biological target: recombinant human LDHA protein (Homo sapiens, UniProt P00338); test: In vitro LDHA inhibitory assay (NADH consumption); format: biochemical; details: 100 µg/mL, three replicates; read-out: Mean Inhibition Percent ± SD, LDHA
Text: The LDHA inhibitory efficiencies were investigated on Spectramax M2 spectrofluorometer via measuring the amounts of the consumed NADH^40 using an NAD^+/NADH quantification kit. […]
S3.2.3. In vitro LDHA inhibitory assay.
The LDHA inhibitory activity of the test compounds was investigated using Spectramax M2
spectrofluorometer by measuring the amounts of the consumed NADH [42] employing
NAD+/NADH quantification kit. Briefly, the assay medium containing various concentrations of
each test compound (50, 100, 200 and 300 μg/mL) was incubated in assay medium composed of 20
mM of HEPES-K+ buffer (pH 7.2), 20 μM of NADH, 2 mM of pyruvate and 10 ng of purified
recombinant human LDHA protein for 10 min utes. The activity of LDHA would result in reduction
of pyruvate into lactate with concomitant oxidation of NADH to NAD +. Since NADH (reduced
LDHA, could be inversely quantified by monitoring the change in the intensity of the fluorescence
at 340 nm over a 10-minute period. The rate of the fluorescence change (slope) in treated samples
was compared to that obtained from negative control experiment (100 % enzymatic activity) to
determine the percentage of inhibition. The IC50 value—defined as the compound concentration
required to reduce the luminescence by 50%, compared to untreated control wells—was
determined for each compound from the corresponding dose–response curve generated by
plotting LDHA inhibition (%) against compound concentration.
was used as the reference LDHA inhibitor. […]

[4] = system: LoVo colon carcinoma cells; test: Cell viability, LDH release assay, LoVo; details: Homo sapiens, LoVo, 48 h; for viability at 100 µg/mL: read-out: Mean % of viable cells ± SD, LoVo, 100 µg/mL, 48 h, LDH release assay
Description: (§1) The studied compounds were also screened for their cytotoxic effects on HCT-116 and LoVo colon carcinoma cells, as well as normal HUVECs, using the standard LDH assay at a concentration of 100 µg/mL.
(§2) The antiproliferative activities of the newly synthesized compounds 3a–e, 8, 9a–c, 13, 14, 17, 18a–h, 20, 22, 23 and 25 were examined on human colon HCT-116 and LoVo cell lines as well as HUVEC (American Type Culture Collection, Manassas, VA, USA). […]
(§3) S3.2.4. Cell culture and viability assay.
(§4) The cytotoxic activities of the newly synthesized compounds (3a-e, 8, 9a-c, 13, 14, 17, 18a-h, 20, 22,
(§5) 23, and 25) were examined on human colon cancer cell lines HCT-116 and Lovo (American Type
(§6) Culture Collection, USA). Various concentrations (50, 100, 200, and 400 μg/mL) of test compounds
(§7) were prepared in Dulbecco’s Modified Eagles Medium (PAN-Biotech, Barcelona, Spain),

[5] = system: HCT-116 colon carcinoma cells; test: Cell viability, LDH release assay, HCT-116; details: Homo sapiens, HCT-116, 48 h; for viability at 100 µg/mL: read-out: Mean % of viable cells ± SD, HCT-116, 100 µg/mL, 48 h, LDH release assay
Description: as §1, §2, §3, §4, §5, §6, §7

[6] = Cell viability, LDH release assay, normal HUVECs; details: human, normal HUVECs, Mean % of viable cells ± SD, HUVEC
Description: as §1, §2
medium served used as negative and positive controls, respectively. Percentages of viable cells […]
were calculated based on relative optical density (OD) values (at 550 nm) for compound-treated […]
wells (final concentration of 100 μg/mL), compared to the negative control, and expressed as mean value (%) ± SD from two replicates. Graphing dose-response curves representing the compound […]
concentration versus the percentages of viable cells was also conducted to deduce the half - […]
Additionally, the safety profiles of the studied compounds were assessed against normal cells […]
(HUVECs) at final concentration of 100 μg/mL . HUVECs were grown in Dulbecco’s Modified Eagle’s Medium supplemented with 10% FBS, 2 mM glutamine (Sigma Aldrich), 100 units/mL penicillin and […] streptomycin (Life Technologies; Paisley, UK). […]

Work on `COc1cc(OC)c(/C=N/n2c(C)nc3ccc(F)cc3c2=O)c(OC)c1` [Compound 18e, (E)-6-Fluoro-2-methyl-3-((2,4,6-trimethoxybenzylidene)amino)quinazolin-4(3H)-one] yielded an IC50 [1] of 0.781 ± 0.046 mM, an inhibition at 100 µg/mL [2] of 30 ± 1% and an inhibition at 100 µg/mL [3] of 36.8 ± 1.91%. It also gave a viability at 100 µg/mL [4] of 88.7 ± 3.21%, a viability at 100 µg/mL [5] of 87.3 ± 2.08% and a viability at 48 h, 100 µg/mL [6] of 83 ± 3.61%.

`Cc1nc2ccc(F)cc2c(=O)n1/N=C/c1c(O)ccc2ccccc12` [Compound 18f, (E)-6-Fluoro-3-(((2-hydroxynaphthalen-1-yl)methylene)amino)-2-methylquinazolin-4(3H)-one] showed an IC50 [1] of 0.288 ± 0.029 mM, an inhibition at 100 µg/mL [2] of 52 ± 3.61% and an inhibition at 100 µg/mL [3] of 14.4 ± 1.41%. The viability at 100 µg/mL [4] was 73 ± 3.46%, the viability at 100 µg/mL [5] was 83 ± 3% and the viability at 48 h, 100 µg/mL [6] was 83 ± 1.73%.

`COc1ccc(/C=N/n2c(C)nc3ccc(F)cc3c2=O)cc1O` [Compound 18g, (E)-6-Fluoro-3-((3-hydroxy-4-methoxybenzylidene)amino)-2-methylquinazolin-4(3H)-one] showed an IC50 [1] of 0.238 ± 0.006 mM, an inhibition at 100 µg/mL [2] of 66 ± 1.73% and an inhibition at 100 µg/mL [3] of 22.2 ± 1.13%. The viability at 100 µg/mL [4] was 74.7 ± 2.52%, the viability at 100 µg/mL [5] was 58.7 ± 3.06% and the viability at 48 h, 100 µg/mL [6] was 88 ± 2.65%.

For `Cc1nc2ccc(F)cc2c(=O)n1/N=C/c1cccs1` [Compound 18h, (E)-6-Fluoro-2-methyl-3-((thiophen-2-ylmethylene)amino)quinazolin-4(3H)-one], the IC50 [1] was 0.379 ± 0.004 mM, the inhibition at 100 µg/mL [2] was 37 ± 3.61% and the inhibition at 100 µg/mL [3] was 18.9 ± 1.77%. It also gave a viability at 100 µg/mL [4] of 33 ± 4.24%, an IC50 ([4]; read-out: Mean IC50 Values in µM ± SD, LoVo cells) of 479 ± 19.2 µM and a viability at 100 µg/mL [5] of 37 ± 2%. For the same molecule, the IC50 ([5]; read-out: Mean IC50 Values in µM ± SD, HCT-116 cells) was 498 ± 12.6 µM and the viability at 48 h, 100 µg/mL [6] was 78 ± 2%.

`CCOC(=O)c1sc(NC(=O)/C(=C/c2ccc(OC(C)=O)c(OC)c2)NC(=O)c2ccccc2)nc1C` [Compound 20, Ethyl (Z)-2-(3-(4-Acetoxy-3-methoxyphenyl)-2-benzamido-acrylamido)-4-methylthiazole-5-carboxylate] showed an IC50 [1] of 0.745 ± 0.027 mM, an inhibition at 100 µg/mL [2] of 28.2 ± 1.06% and an inhibition at 100 µg/mL [3] of 16.9 ± 1.27%. For the same molecule, the viability at 100 µg/mL [4] was 51 ± 2.83%, the viability at 100 µg/mL [5] was 49 ± 2.83% and the viability at 48 h, 100 µg/mL [6] was 73 ± 2.75%.
